Measurements: ChEMBL document CHEMBL1255419, “Pharmacokinetic-pharmacodynamic assessment of faropenem in a lethal murine Bacillus anthracis inhalation postexposure prophylaxis model” (Antimicrob Agents Chemother, 2010)
In brackets after ≈: the same amount, converted by molar mass. Activity calls are given as the source filed them. The calls are words filed in the database; no cut-off is given here.

Tests used:
Bacillus anthracis [1] = test: microbe, parasite or virus in culture; format: functional
Bacillus anthracis [2] = test: microbe, parasite or virus in culture; format: functional; remark: listed apart in the source
Bacillus anthracis [3] = test: microbe, parasite or virus in culture; format: functional; remark: listed apart in the source
Bacillus anthracis [4] = test: microbe, parasite or virus in culture; format: functional; remark: listed apart in the source
Bacillus anthracis [5] = test: microbe, parasite or virus in culture; format: functional; remark: listed apart in the source
Bacillus anthracis [6] = test: microbe, parasite or virus in culture; format: functional; remark: listed apart in the source
Bacillus anthracis [7] = test: microbe, parasite or virus in culture; format: functional; remark: listed apart in the source
Bacillus anthracis [8] = test: microbe, parasite or virus in culture; format: functional; remark: listed apart in the source
Bacillus anthracis [9] = test: microbe, parasite or virus in culture; format: functional; remark: listed apart in the source
Bacillus anthracis [10] = test: microbe, parasite or virus in culture; format: functional; remark: listed apart in the source
Bacillus anthracis [11] = test: microbe, parasite or virus in culture; format: functional; remark: listed apart in the source
Bacillus anthracis [12] = test: microbe, parasite or virus in culture; format: functional; remark: listed apart in the source
Bacillus anthracis [13] = test: microbe, parasite or virus in culture; format: functional; remark: listed apart in the source
Bacillus anthracis [14] = test: microbe, parasite or virus in culture; format: functional; remark: listed apart in the source
Bacillus anthracis [15] = test: microbe, parasite or virus in culture; format: functional; remark: listed apart in the source
Bacillus anthracis [16] = test: microbe, parasite or virus in culture; format: functional; remark: listed apart in the source
Bacillus anthracis [17] = test: microbe, parasite or virus in culture; format: functional; remark: listed apart in the source
Bacillus anthracis [18] = test: microbe, parasite or virus in culture; format: functional; remark: listed apart in the source
Bacillus anthracis [19] = test: microbe, parasite or virus in culture; format: functional; remark: listed apart in the source
Bacillus anthracis [20] = test: microbe, parasite or virus in culture; format: functional; remark: listed apart in the source
Bacillus anthracis [21] = test: microbe, parasite or virus in culture; format: functional; remark: listed apart in the source
Bacillus anthracis [22] = test: microbe, parasite or virus in culture; format: functional; remark: listed apart in the source
Bacillus anthracis [23] = test: microbe, parasite or virus in culture; format: functional; remark: listed apart in the source
Bacillus anthracis [24] = test: microbe, parasite or virus in culture; format: functional; remark: listed apart in the source
Bacillus anthracis [25] = test: microbe, parasite or virus in culture; format: functional; remark: listed apart in the source
Bacillus anthracis [26] = test: microbe, parasite or virus in culture; format: functional; remark: listed apart in the source
Bacillus anthracis [27] = test: Antibacterial activity against beta-lactamase Bla1 and Bla2-producing Bacillus anthracis Sterne by broth microdilution method; format: functional
Bacillus anthracis [28] = test: microbe, parasite or virus in culture; format: functional; remark: listed apart in the source
Bacillus anthracis [29] = test: microbe, parasite or virus in culture; format: functional; remark: listed apart in the source
Bacillus anthracis [30] = test: animal or person; conditions: Ames, in Mus musculus, ip
Bacillus anthracis [31] = conditions: Ames, 30 mg/kg

Row | SMILES | MIC (Bacillus anthracis [1]) | MIC (Bacillus anthracis [2]) | MIC (Bacillus anthracis [3]) | MIC (Bacillus anthracis [4]) | MIC (Bacillus anthracis [5]) | MIC (Bacillus anthracis [7]) | MIC (Bacillus anthracis [8]) | MIC (Bacillus anthracis [9]) | MIC (Bacillus anthracis [10]) | MIC (Bacillus anthracis [11]) | MIC (Bacillus anthracis [12]) | MIC (Bacillus anthracis [13]) | MIC (Bacillus anthracis [14]) | MIC (Bacillus anthracis [15]) | MIC (Bacillus anthracis [16]) | MIC (Bacillus anthracis [17]) | MIC (Bacillus anthracis [18]) | MIC (Bacillus anthracis [19]) | MIC (Bacillus anthracis [20]) | MIC (Bacillus anthracis [21]) | further results
1 | CC[C@H]1OC(=O)[C@H](C)[C@@H](O[C@H]2C[C@@](C)(OC)[C@@H](O)[C@H](C)O2)[C@H](C)[C@@H](O[C@@H]2O[C@H](C)C[C@H](N(C)C)[C@H]2O)[C@](C)(O)C[C@@H](C)CN(C)[C@H](C)[C@@H](O)[C@]1(C)O [AZITHROMYCIN] | 4 µg/mL (≈ 5.34 µM) | 1 µg/mL (≈ 1.34 µM) | 4 µg/mL (≈ 5.34 µM) | 4 µg/mL (≈ 5.34 µM) | 2 µg/mL (≈ 2.67 µM) | 4 µg/mL (≈ 5.34 µM) | 4 µg/mL (≈ 5.34 µM) | 4 µg/mL (≈ 5.34 µM) | 4 µg/mL (≈ 5.34 µM) | 4 µg/mL (≈ 5.34 µM) | 2 µg/mL (≈ 2.67 µM) | 2 µg/mL (≈ 2.67 µM) | 2 µg/mL (≈ 2.67 µM) | 4 µg/mL (≈ 5.34 µM) | 4 µg/mL (≈ 5.34 µM) | 4 µg/mL (≈ 5.34 µM) | 2 µg/mL (≈ 2.67 µM) | 4 µg/mL (≈ 5.34 µM) | 4 µg/mL (≈ 5.34 µM) | 4 µg/mL (≈ 5.34 µM) | MIC (Bacillus anthracis [6]): 4 µg/mL (≈ 5.34 µM); MIC (Bacillus anthracis [22]): 2 µg/mL (≈ 2.67 µM); MIC (Bacillus anthracis [23]): 4 µg/mL (≈ 5.34 µM); MIC (Bacillus anthracis [24]): 4 µg/mL (≈ 5.34 µM); MIC (Bacillus anthracis [25]): 2 µg/mL (≈ 2.67 µM); MIC (Bacillus anthracis [26]): 4 µg/mL (≈ 5.34 µM); MIC (Bacillus anthracis [27]): 2 µg/mL (≈ 2.67 µM); MIC (Bacillus anthracis [28]): 2 µg/mL (≈ 2.67 µM); MIC (Bacillus anthracis [29]): 4 µg/mL (≈ 5.34 µM)
2 | O=C(O)c1cn(C2CC2)c2cc(N3CCNCC3)c(F)cc2c1=O [CIPROFLOXACIN] | ≤ 0.06 µg/mL | 0.25 µg/mL (≈ 0.754 µM) | 0.12 µg/mL (≈ 0.362 µM) | 0.12 µg/mL (≈ 0.362 µM) | ≤ 0.06 µg/mL | ≤ 0.06 µg/mL | 0.12 µg/mL (≈ 0.362 µM) | ≤ 0.06 µg/mL | ≤ 0.06 µg/mL | ≤ 0.06 µg/mL | ≤ 0.06 µg/mL | ≤ 0.06 µg/mL | ≤ 0.06 µg/mL | 1 µg/mL (≈ 3.02 µM) | ≤ 0.06 µg/mL | ≤ 0.06 µg/mL | 0.12 µg/mL (≈ 0.362 µM) | 0.12 µg/mL (≈ 0.362 µM) | 0.25 µg/mL (≈ 0.754 µM) | 0.12 µg/mL (≈ 0.362 µM) | survival at 60 mg/kg (Bacillus anthracis [30]): 90%; inhibition (Bacillus anthracis [31]): Active; MIC (Bacillus anthracis [22]): ≤ 0.06 µg/mL; MIC (Bacillus anthracis [23]): 0.25 µg/mL (≈ 0.754 µM); MIC (Bacillus anthracis [24]): 0.12 µg/mL (≈ 0.362 µM); MIC (Bacillus anthracis [25]): 0.12 µg/mL (≈ 0.362 µM); MIC (Bacillus anthracis [26]): 0.12 µg/mL (≈ 0.362 µM); MIC (Bacillus anthracis [27]): ≤ 0.06 µg/mL; MIC (Bacillus anthracis [28]): ≤ 0.06 µg/mL; MIC (Bacillus anthracis [29]): ≤ 0.06 µg/mL
3 | C[C@H]1c2cccc(O)c2C(=O)C2=C(O)[C@]3(O)C(=O)C(C(N)=O)=C(O)[C@@H](N(C)C)[C@@H]3[C@@H](O)[C@@H]21.O [DOXYCYCLINE] | ≤ 0.06 µg/mL | ≤ 0.06 µg/mL | ≤ 0.06 µg/mL | ≤ 0.06 µg/mL | ≤ 0.06 µg/mL | ≤ 0.06 µg/mL | ≤ 0.06 µg/mL | ≤ 0.06 µg/mL | ≤ 0.06 µg/mL | ≤ 0.06 µg/mL | ≤ 0.06 µg/mL | ≤ 0.06 µg/mL | ≤ 0.06 µg/mL | ≤ 0.06 µg/mL | ≤ 0.06 µg/mL | ≤ 0.06 µg/mL | ≤ 0.06 µg/mL | ≤ 0.06 µg/mL | ≤ 0.06 µg/mL | ≤ 0.06 µg/mL | MIC (Bacillus anthracis [6]): ≤ 0.06 µg/mL; MIC (Bacillus anthracis [22]): ≤ 0.06 µg/mL; MIC (Bacillus anthracis [23]): 0.25 µg/mL; MIC (Bacillus anthracis [24]): ≤ 0.06 µg/mL; MIC (Bacillus anthracis [25]): ≤ 0.06 µg/mL; MIC (Bacillus anthracis [26]): ≤ 0.06 µg/mL; MIC (Bacillus anthracis [27]): ≤ 0.06 µg/mL; MIC (Bacillus anthracis [28]): ≤ 0.06 µg/mL; MIC (Bacillus anthracis [29]): ≤ 0.06 µg/mL
4 | C[C@@H](O)[C@H]1C(=O)N2C(C(=O)O)=C(S[C@@H]3CN[C@H](C(=O)N(C)C)C3)[C@H](C)[C@H]12 [MEROPENEM] | 8 µg/mL (≈ 20.9 µM) | ≤ 0.06 µg/mL | 0.12 µg/mL (≈ 0.313 µM) | 0.25 µg/mL (≈ 0.652 µM) | 0.12 µg/mL (≈ 0.313 µM) | 0.12 µg/mL (≈ 0.313 µM) | 0.12 µg/mL (≈ 0.313 µM) | 32 µg/mL (≈ 83.4 µM) | 0.12 µg/mL (≈ 0.313 µM) | 0.12 µg/mL (≈ 0.313 µM) | < 0.06 µg/mL | 0.06 µg/mL (≈ 0.156 µM) | 4 µg/mL (≈ 10.4 µM) | 0.25 µg/mL (≈ 0.652 µM) | 0.12 µg/mL (≈ 0.313 µM) | 0.25 µg/mL (≈ 0.652 µM) | 0.25 µg/mL (≈ 0.652 µM) | 0.12 µg/mL (≈ 0.313 µM) | 0.25 µg/mL (≈ 0.652 µM) | 0.25 µg/mL (≈ 0.652 µM) | MIC (Bacillus anthracis [6]): 0.12 µg/mL (≈ 0.313 µM); MIC (Bacillus anthracis [22]): 0.12 µg/mL (≈ 0.313 µM); MIC (Bacillus anthracis [23]): 0.25 µg/mL (≈ 0.652 µM); MIC (Bacillus anthracis [24]): 0.12 µg/mL (≈ 0.313 µM); MIC (Bacillus anthracis [25]): 0.12 µg/mL (≈ 0.313 µM); MIC (Bacillus anthracis [26]): 0.12 µg/mL (≈ 0.313 µM); MIC (Bacillus anthracis [27]): ≤ 0.06 µg/mL; MIC (Bacillus anthracis [28]): 0.5 µg/mL (≈ 1.3 µM); MIC (Bacillus anthracis [29]): 0.12 µg/mL (≈ 0.313 µM)
5 | CC1(C)S[C@@H]2[C@H](NC(=O)Cc3ccccc3)C(=O)N2[C@H]1C(=O)O [PENICILLIN G] | 2 µg/mL (≈ 5.98 µM) | 1 µg/mL (≈ 2.99 µM) | 1 µg/mL (≈ 2.99 µM) | 2 µg/mL (≈ 5.98 µM) | 4 µg/mL (≈ 12 µM) | 2 µg/mL (≈ 5.98 µM) | 1 µg/mL (≈ 2.99 µM) | 32 µg/mL (≈ 95.7 µM) | 2 µg/mL (≈ 5.98 µM) | 4 µg/mL (≈ 12 µM) | 1 µg/mL (≈ 2.99 µM) | 4 µg/mL (≈ 12 µM) | 8 µg/mL (≈ 23.9 µM) | 2 µg/mL (≈ 5.98 µM) | 2 µg/mL (≈ 5.98 µM) | 8 µg/mL (≈ 23.9 µM) | 4 µg/mL (≈ 12 µM) | 1 µg/mL (≈ 2.99 µM) | 4 µg/mL (≈ 12 µM) | 1 µg/mL (≈ 2.99 µM) | MIC (Bacillus anthracis [6]): 2 µg/mL (≈ 5.98 µM); MIC (Bacillus anthracis [22]): 8 µg/mL (≈ 23.9 µM); MIC (Bacillus anthracis [23]): 2 µg/mL (≈ 5.98 µM); MIC (Bacillus anthracis [24]): 1 µg/mL (≈ 2.99 µM); MIC (Bacillus anthracis [25]): 4 µg/mL (≈ 12 µM); MIC (Bacillus anthracis [26]): 2 µg/mL (≈ 5.98 µM); MIC (Bacillus anthracis [27]): 4 µg/mL (≈ 12 µM); MIC (Bacillus anthracis [28]): 2 µg/mL (≈ 5.98 µM); MIC (Bacillus anthracis [29]): 2 µg/mL (≈ 5.98 µM)
6 | CN(C)[C@@H]1C(O)=C(C(N)=O)C(=O)[C@@]2(O)C(O)=C3C(=O)c4c(O)cccc4[C@@](C)(O)[C@H]3C[C@@H]12 [TETRACYCLINE] | ≤ 0.06 µg/mL | ≤ 0.06 µg/mL | ≤ 0.06 µg/mL | ≤ 0.06 µg/mL | ≤ 0.06 µg/mL | ≤ 0.06 µg/mL | ≤ 0.06 µg/mL | ≤ 0.06 µg/mL | ≤ 0.06 µg/mL | ≤ 0.06 µg/mL | ≤ 0.06 µg/mL | ≤ 0.06 µg/mL | ≤ 0.06 µg/mL | ≤ 0.06 µg/mL | ≤ 0.06 µg/mL | ≤ 0.06 µg/mL | ≤ 0.06 µg/mL | ≤ 0.06 µg/mL | ≤ 0.06 µg/mL | ≤ 0.06 µg/mL | MIC (Bacillus anthracis [6]): ≤ 0.06 µg/mL; MIC (Bacillus anthracis [22]): ≤ 0.06 µg/mL; MIC (Bacillus anthracis [23]): ≤ 0.06 µg/mL; MIC (Bacillus anthracis [24]): ≤ 0.06 µg/mL; MIC (Bacillus anthracis [25]): ≤ 0.06 µg/mL; MIC (Bacillus anthracis [26]): ≤ 0.06 µg/mL; MIC (Bacillus anthracis [27]): ≤ 0.06 µg/mL; MIC (Bacillus anthracis [28]): ≤ 0.06 µg/mL; MIC (Bacillus anthracis [29]): ≤ 0.06 µg/mL
